Literature values, collected in US20250325558A1, “MODULATION OF BACE1 AS A THERAPY FOR SPINOCEREBELLAR ATAXIA” (The General Hospital Corporation, priority 2022, published 2025).

Details: preclinical and clinical studies

CN1C(=N)N[C@](C)(c2cc(NC(=O)c3ccc(F)cn3)ccc2F)CS1(=O)=O [MK-8931, verubecestat]
serious adverse side effects such as liver toxicity: did not produce any serious adverse side effects such as liver toxicity
